Experiments:
[1] = human
[2] = human; remark: listed apart in the source
[3] = Highest frequency of moderate liver toxicity observed during clinical trials, expressed as a percentage. [column '% BIOL' in source]; conditions: human
[4] = human; remark: listed apart in the source
[5] = human; remark: listed apart in the source
[6] = human, serum
[7] = human; remark: listed apart in the source
[8] = Highest frequency of acute liver toxicity observed during clinical trials, expressed as a percentage. [column '% AIGUE' in source]; conditions: human
[9] = human, serum; remark: listed apart in the source
[10] = human; remark: listed apart in the source
[11] = human; remark: listed apart in the source
[12] = human; remark: listed apart in the source
[13] = human, serum, 4383 h
[14] = human; remark: listed apart in the source
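Throughout, for Hepatotoxicity (association with vascular disease): count of indexed literature references reporting vascular liver injury in humans, e.g. peliosis hepatitis, hepatic veno-occlusive disease or Budd-Chiari syndrome.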
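Throughout, for Hepatotoxicity (benign tumour): value is a count of indexed literature references citing a benign tumour confirmed by histopathology.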
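Throughout, for Hepatotoxicity (choleostasis): human cholestatic liver injury, shown by histopathology or by peak ALT or AST elevation over alkaline phosphatase ratio below 2, value counts indexed literature reports.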
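Throughout, for Hepatotoxicity (chronic liver disease): chronic liver injury confirmed by histopathology or persistently raised serum aminotransferase activity beyond 6 months, value given as the count of indexed literature references.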
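Throughout, for Hepatotoxicity (cirrhosis): value is a count of indexed literature references reporting cirrhosis confirmed by histopathology.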
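Throughout, for Hepatotoxicity (cytolytic): human cytolytic liver injury, shown by histopathology or by a ratio above 5 of peak ALT or AST elevation to alkaline phosphatase elevation, value counts indexed references.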
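Throughout, for Hepatotoxicity (granulomatous hepatitis): value is a count of indexed literature references reporting granulomatous liver disease confirmed by histopathology.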
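Throughout, for Hepatotoxicity (malignant tumour): malignant tumour confirmed by histopathology, value gives the count of indexed literature references reporting it.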
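Throughout, for Hepatotoxicity (severe hepatitis): human clinical data: severe hepatitis, meaning potentially life-threatening liver failure or clinically observed cases, the value counts how many indexed literature references report it.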
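Throughout, for Hepatotoxicity (steatosis): steatosis confirmed by histopathology, value is the count of indexed references.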

Row | Compound | Hepatotoxicity (benign tumour) [1] | Hepatotoxicity (choleostasis) [2] | Hepatotoxicity (moderate) [3] | Hepatotoxicity (cytolytic) [4] | Hepatotoxicity (cirrhosis) [5] | Hepatotoxicity (acute) [6] | Hepatotoxicity (severe hepatitis) [7] | Hepatotoxicity (acute) [8] | Hepatotoxicity (moderate) [9] | Hepatotoxicity (granulomatous hepatitis) [10] | Hepatotoxicity (malignant tumour) [11] | Hepatotoxicity (association with vascular disease) [12] | Hepatotoxicity (chronic liver disease) [13] | Hepatotoxicity (steatosis) [14] | Hepatotoxicity (choleostasis) ([2]; Liver) | Hepatotoxicity (moderate) ([3]; Liver) | Hepatotoxicity (cytolytic) ([4]; Liver) | Hepatotoxicity (severe hepatitis) ([7]; Liver) | Hepatotoxicity (acute) ([8]; Liver) | Hepatotoxicity (granulomatous hepatitis) ([10]; Liver)
1 | CO/N=C(\C(=O)N[C@@H]1C(=O)N2C(C(=O)O)=C(C)CS[C@H]12)c1csc(N)n1 | 0 | 0 | 23.1% | 0 | 0 | 0 | 0 | 0% | 30 | 0 | 0 | 0 | 0 | 0 |  |  |  |  |  | 
2 | COc1cccc(C2(O)CCCCC2CN(C)C)c1 (centres undefined) [TRAMADOL] | 0 | 0 | 0% | 0 | 0 | 0 | 0 | 0% | 1 | 0 | 0 | 0 | 0 | 0 |  |  |  |  |  | 
3 | CCN(CC)CC(=O)Oc1ccc(NC(C)=O)cc1 [PROPACETAMOL] | 0 | 0 | 2.1% | 0 | 0 | 0 | 0 | 0% | 1 | 0 | 0 | 0 | 0 | 0 |  |  |  |  |  | 
4 | C[C@@H]1C[C@H](C)CN(S(=O)(=O)c2ccc(Cl)c(C(=O)O)c2)C1 [TIBRIC ACID] | 0 | 0 | 0% | 0 | 0 | 0 | 0 | 0% | 1 | 0 | 0 | 0 | 0 | 0 |  |  |  |  |  | 
5 | O=C(Cn1ccnc1[N+](=O)[O-])NCc1ccccc1 [BENZNIDAZOLE] | 0 | 0 | 0% | 0 | 0 | 1 | 0 | 0% | 0 | 0 | 0 | 0 | 0 | 0 |  |  |  |  |  | 
6 | CCn1cc(C(=O)O)c(=O)c2cnc(N3CCNCC3)nc21 [PIPEMIDIC ACID] | 0 | 0 | 0% | 0 | 0 | 0 | 0 | 0% | 1 | 0 | 0 | 0 | 0 | 0 |  |  |  |  |  | 
7 | Cc1cccc(Nc2cc(Cl)nc(SCC(=O)NCCO)n2)c1C [PIRINIXIL] | 0 | 0 | 0% | 0 | 0 | 0 | 0 | 0% | 1 | 0 | 0 | 0 | 0 | 0 |  |  |  |  |  | 
8 | CHOLESTYRAMINE | 0 | 0 | 30% | 0 | 0 | 0 | 0 | 0% | 11 | 0 | 0 | 0 | 0 | 0 |  |  |  |  |  | 
9 | Fc1ccc(C(c2ccc(F)cc2)N2CCN(C/C=C/c3ccccc3)CC2)cc1 [FLUNARIZINE] | 0 | 0 | 1.4% | 0 | 0 | 0 | 0 | 0% | 1 | 0 | 0 | 0 | 0 | 0 |  |  |  |  |  | 
10 | CCC(C(=O)NC(N)=O)c1ccccc1 (centres undefined) [PHENETURIDE] | 0 | 0 | 0% | 0 | 0 | 0 | 0 | 0% | 1 | 0 | 0 | 0 | 0 | 0 |  |  |  |  |  | 
11 | NS(=O)(=O)OCCCCCCCOS(N)(=O)=O | 0 | 0 | 25% | 0 | 0 | 0 | 0 | 0% | 2 | 0 | 0 | 0 | 0 | 0 |  |  |  |  |  | 
12 | CC[C@H]1OC(=O)[C@H](C)C(=O)[C@H](C)[C@@H](O[C@@H]2O[C@H](C)C[C@H](N(C)C)[C@H]2O)[C@](C)(OC)C[C@@H](C)C(=O)[C@H](C)[C@H]2N(CCCCn3cnc(-c4cccnc4)c3)C(=O)O[C@]12C [TELITHROMYCIN] | 0 |  |  |  | 0 | 0 |  |  | 4 |  | 0 | 0 | 0 | 0 | 0 | 1.8% | 0 | 0 | 0% | 0
13 | INTERLEUKIN 1BETA | 0 | 0 | 75% | 0 | 0 | 0 | 0 | 0% | 1 | 0 | 0 | 0 | 0 | 0 |  |  |  |  |  | 
14 | COC1=C(C(=O)O)N2C(=O)[C@@H](NC(=O)[C@H](N)C3=CCC=CC3)[C@H]2SC1 [CEFROXADINE] | 0 | 0 | 2% | 0 | 0 | 0 | 0 | 0% | 1 | 0 | 0 | 0 | 0 | 0 |  |  |  |  |  | 
15 | Cc1cc(NS(=O)(=O)c2ccc(N)cc2)nc(C)n1 [SULFISOMIDINE] | 0 | 0 | 0% | 0 | 0 | 1 | 0 | 0% | 0 | 0 | 0 | 0 | 0 | 0 |  |  |  |  |  | 
16 | COc1ccc(C(=O)Nc2ccccc2CCC2CCCCN2C)cc1 (centres undefined) [ENCAINIDE] | 0 | 0 | 0% | 0 | 0 | 1 | 0 | 0% | 0 | 0 | 0 | 0 | 0 | 0 |  |  |  |  |  | 
